Data set [1] has as its target T1, CYP3A4 (Homo sapiens, UniProt P08684).
T1 construct: from tissue; host or cells: pooled human liver microsomes
Description: CYP450 Inhibition Assay 1 (pooled human liver microsomes, midazolam). The note with it: for IC50: HLM 0.05 mg/mL, midazolam 5 μM, 5 min; for CYP3A4 inhibition, in words: comment on Table 4. Format: in vitro ADME. How it is done:
The CYP450 inhibition assay provides in vitro assessment of the inhibitory potential of the test compounds against cytochrome P450 enzymes. Selective substrates were incubated with pooled human liver microsomes (HLM) as single substrates. All assays employed 100 mM potassium phosphate buffer at pH 7.4.
The assays were performed in a 96-well PCR plate in a final volume of 140 μL at 37° C. Test compounds were evaluated at seven concentrations to obtain IC50 values, with a final concentration of 0.1% DMSO in the incubation (total organic solvent at 1% in the incubation). Reactions were initiated by the addition of NADPH. After the enzyme-specific incubation time had elapsed, an aliquot from that enzyme reaction was quenched in Acetonitrile with 0.2% Formic Acid. Supernatant from the quenched reactions was diluted with an equal volume of water, prior to analysis by LC-MS/MS.
All samples were analyzed on LC-MS/MS using an AB Sciex 6500+ instrument equipped with electrospray ionization source, coupled to a Shimadzu Nexera X2 system. Samples were separated using a Waters UPLC HSS T3, 1.8 μm column, 1×50 mm (catalog #186003535) at a flow rate of 200 μL/min. Injection volume was 2 μL.
(In general: Microsomes from liver hold many membrane-bound enzymes, among them those of drug oxidation.)

Data set [2] has as its target T1, CYP3A4. Description: CYP450 Inhibition Assay 2 (pooled human liver microsomes, 5 concentrations). The format is in vitro ADME. The note with it: Table 3, HLM 0.05 mg protein/mL, 10 min reaction; for IC50 at 10 min: human, pooled human liver microsomes. The procedure: In an alternative experimental design, test compounds were evaluated at 5 concentrations in a 96 well assay plate. Initial combination with pooled human liver microsomes (0.05 mg protein/mL) was followed by a 5 minute incubation. […] The assay plate was incubated for an additional 30 minutes before the reaction was initiated with the addition of NADPH. After 10 minutes of reaction time, the reaction was quenched and samples were analyzed in a similar manner as described above.

The test system of data set [3] is Q7 cells (ST HDH Q7/7; immortalized mouse striatal cells). The data set can be described thus: Q7 Cystine Deprivation cell survival (rescue) assay. Format: cell-based. The note with it: 18 h, read-out: Q7 Cystine Deprivation Survival EC50. An outline of the steps:
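Cells were seeded at 3,000/well and allowed to attach for 5 h at 33 °C. Wells were then washed twice with PBS and switched to cystine-free DMEM containing FBS, 4 mM L-glutamine, 1 mM pyruvate and 30 mg/L methionine to induce ferroptotic death. Compounds were scored for survival rescue.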

Data set [4] has as its system normal human fibroblasts (NHF, GM21811). The data set can be described thus: NHF GM21811 RSL3 challenge cell survival (rescue) assay. The format is cell-based. The note with it: Fibroblast, 48 h, read-out: NHF GM21811 RSL3 Survival EC50. An outline of the steps: (§1)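 Q7 (33° C.) or NHF (37° C.) cells, 3,000/well, attached 5 h, then test compounds at varying final concentrations followed within 15 min by RSL3 (2 micromolar final); 0.3% DMSO. Assay medium identical to growth medium.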

In data set [5] the test system is Q7 cells (ST HDH Q7/7; immortalized mouse striatal cells). The data set can be described thus: Q7 RSL3 challenge cell survival (rescue) assay. Format: cell-based. The note with it: 18 h, read-out: Q7 RSL3 Survival EC50. An outline of the steps:
as §1

Setting [6] is: Q7 cells, cystine-free medium, Cell Titer Glo, 50% relative viability vs Vitamin K2 (1 micromolar).
The mark [7] stands for this setting: NHF cells, RSL3 2 micromolar, Cell Titer Glo.
Where [8] appears, read: Q7 cells, RSL3 2 micromolar, Cell Titer Glo.

Data on 24 compounds can be found in patent publication US20230002324A1, “NAPHTHOQUINONE DERIVATIVES FOR TREATMENT OF OXIDATIVE STRESS DISORDERS” (PTC THERAPEUTICS, INC., priority 2019, published 2023).

Where two headings read alike, the source gives them in different places. Bounds are passed on as bounds.

T1 sequence (P08684 whole entry): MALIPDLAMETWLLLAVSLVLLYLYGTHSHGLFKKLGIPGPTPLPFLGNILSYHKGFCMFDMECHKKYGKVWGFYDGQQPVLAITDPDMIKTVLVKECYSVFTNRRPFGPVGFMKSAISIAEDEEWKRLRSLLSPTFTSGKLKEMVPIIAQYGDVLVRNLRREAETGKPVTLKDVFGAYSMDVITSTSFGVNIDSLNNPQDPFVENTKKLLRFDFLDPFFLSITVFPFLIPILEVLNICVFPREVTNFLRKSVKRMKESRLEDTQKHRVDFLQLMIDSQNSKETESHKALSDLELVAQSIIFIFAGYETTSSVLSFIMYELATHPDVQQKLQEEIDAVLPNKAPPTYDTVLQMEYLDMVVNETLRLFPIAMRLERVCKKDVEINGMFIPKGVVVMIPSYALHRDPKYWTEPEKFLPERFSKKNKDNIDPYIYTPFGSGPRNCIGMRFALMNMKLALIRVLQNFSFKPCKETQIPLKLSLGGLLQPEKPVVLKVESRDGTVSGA

Usually IC50 stands for the point on the concentration scale where inhibition reaches its midpoint. As to `CC1=C(Cc2cccnc2)C(=O)c2ccccc2C1=O` [Comparison Compound 1, reference compound], the IC50 against CYP3A4 [1] (Table 4 comparison) was 0.421 µM. The “CYP3A4 inhibition, in words” value on CYP3A4 [1] was “very potent inhibitor of CYP3A4”.

`CC1=C(Cc2ccncc2)C(=O)c2ccccc2C1=O` [Comparison Compound 2, reference compound] returned an IC50 at CYP3A4 [1] (Table 4 comparison) of 1.07 µM. The “CYP3A4 inhibition, in words” value on CYP3A4 [1] is given as “potent CYP3A4 inhibitor”.

As usually defined, the EC50 is the concentration giving half of the maximal effect. On to `CC1=C(Cc2ccccn2)C(=O)c2ccccc2C1=O` [Example 23, 2-methyl-3-(pyridin-2-ylmethyl)naphthalene-1,4-dione], for which the IC50 at CYP3A4 [2] was determined as 12.7 µM; on CYP3A4 [1] (Table 3), 22.8 µM. In data set [3] (setting [6]), the EC50 was < 50 nM.

On to `CCC1=C(Cc2ccc(C(F)(F)F)cn2)C(=O)c2ccccc2C1=O` [Example 26, 2-ethyl-3-((5-(trifluoromethyl)pyridin-2-yl)methyl)naphthalene-1,4-dione], for which the half-maximal inhibitory concentration (IC50) on CYP3A4 [2] is 14.2 µM. In addition, the EC50 in data set [4] (setting [7]), in data set [3] (setting [6]) and in data set [5] (setting [8]) was < 50 nM each time.

For `CC(C)C1=C(Cc2ccc(C(F)(F)F)cn2)C(=O)c2ccccc2C1=O` [Example 30, 2-isopropyl-3-((5-(trifluoromethyl)pyridin-2-yl)methyl)naphthalene-1,4-dione], the IC50 on CYP3A4 [2] is 10.3 µM. The concentration giving a half-maximal response (EC50) in data set [4] and in data set [3] was < 50 nM throughout.

Take `CC1=C(Cc2ncccc2C(F)(F)F)C(=O)c2ccccc2C1=O` [Example 39, 2-methyl-3-((3-(trifluoromethyl)pyridin-2-yl)methyl)naphthalene-1,4-dione]: the IC50 at 10 min at CYP3A4 [2] is ≥ 50 µM. For the same compound, in data set [3] (setting [6]), the EC50 is < 50 nM.

`CCC1=C(Cc2ccc(C(F)(F)F)cn2)C(=O)c2c(F)ccc(F)c2C1=O` [Example 55, 2-ethyl-5,8-difluoro-3-((5-(trifluoromethyl)pyridin-2-yl)methyl)naphthalene-1,4-dione]: the half-maximal effective concentration (EC50) in data set [4] and in data set [5] was < 50 nM throughout. It took 3.68 µM to reach half-maximal inhibition on CYP3A4 [1] (Table 3) (IC50).

Take `[2H]C([2H])([2H])C1=C(Cc2ccc(C(F)(F)F)cn2)C(=O)c2cc(F)cc(F)c2C1=O` [Example 57, 5,7-difluoro-3-(methyl-d3)-2-((5-(trifluoromethyl)pyridin-2-yl)methyl)naphthalene-1,4-dione]: in data set [5] (setting [8]), the concentration for a half-maximal effect (EC50) is < 50 nM. Further, inhibition against CYP3A4 [1] (Table 3) was half-maximal at 1.49 µM (IC50).

On to `CC1=C(Cc2ccc(C(F)(F)F)c(C#N)n2)C(=O)c2ccc(F)cc2C1=O` [Example 70, 6-((6-fluoro-3-methyl-1,4-dioxo-1,4-dihydronaphthalen-2-yl)methyl)-3-(trifluoromethyl)picolinonitrile], for which the concentration for a half-maximal effect (EC50) in data set [4] (setting [7]) and in data set [5] (setting [8]) was < 50 nM in each case. The IC50 against CYP3A4 [1] (Table 3) was 4.14 µM.

`CC1=C(Cc2ccc(C(F)(F)F)c(C#N)n2)C(=O)c2c(F)ccc(F)c2C1=O` [Example 79, 6-((5,8-difluoro-3-methyl-1,4-dioxo-1,4-dihydronaphthalen-2-yl)methyl)-3-(trifluoromethyl)picolinonitrile]: the concentration giving a half-maximal response (EC50) in data set [4] (setting [7]) and in data set [5] (setting [8]) was < 50 nM throughout. At CYP3A4 [1] (Table 3), this compound displayed an IC50 of 2.4 µM.

Turning to `CCC1=C(Cc2ccc(C(F)(F)F)c(C#N)n2)C(=O)c2ccc(F)cc2C1=O` [Example 81, 6-((3-ethyl-6-fluoro-1,4-dioxo-1,4-dihydronaphthalen-2-yl)methyl)-3-(trifluoromethyl)picolinonitrile], the EC50 in data set [4] (setting [7]) and in data set [5] (setting [8]) was < 50 nM in each case. The compound also showed an IC50 on CYP3A4 [1] (Table 3) of 11 µM.

As to `CCC1=C(Cc2ccc(C(F)(F)F)c(C#N)n2)C(=O)c2c(F)ccc(F)c2C1=O` [Example 83, 6-((3-ethyl-5,8-difluoro-1,4-dioxo-1,4-dihydronaphthalen-2-yl)methyl)-3-(trifluoromethyl)picolinonitrile], in data set [5] (setting [8]), the EC50 is < 50 nM. For the same compound, the IC50 against CYP3A4 [1] (Table 3) was 2.73 µM.

`N#Cc1nc(CC2=C(C3CC3)C(=O)c3c(F)ccc(F)c3C2=O)ccc1C(F)(F)F` [Example 84, 6-((3-cyclopropyl-5,8-difluoro-1,4-dioxo-1,4-dihydronaphthalen-2-yl)methyl)-3-(trifluoromethyl)picolinonitrile]: the concentration for a half-maximal effect (EC50) in data set [4] (setting [7]) and in data set [5] (setting [8]) was < 50 nM in each case. Besides, the IC50 on CYP3A4 [1] (Table 3) worked out at 1.56 µM.

For `CCC1=C(Cc2ccc(C(F)(F)F)c(C#N)n2)C(=O)c2cc(F)cc(F)c2C1=O` [Example 86, 6-((3-ethyl-5,7-difluoro-1,4-dioxo-1,4-dihydronaphthalen-2-yl)methyl)-3-(trifluoromethyl)picolinonitrile], the EC50 in data set [4] (setting [7]) and in data set [5] (setting [8]) was < 50 nM throughout. The compound further gave a half-maximal inhibitory concentration (IC50) on CYP3A4 [1] (Table 3) of 6.66 µM.

Consider `CC1=C(Cc2ccc(C(=O)O)cn2)C(=O)c2ccccc2C1=O` [Example 99, 6-((3-methyl-1,4-dioxo-1,4-dihydronaphthalen-2-yl)methyl)nicotinic acid], for which, on CYP3A4 [2], the 50% inhibitory concentration (IC50) at 10 min is ≥ 50 µM. For the same compound, the EC50 in data set [3] (setting [6]) was > 1000 nM.

`CC1=C(Cc2ccc(C(=O)NC3CCCC3)cn2)C(=O)c2ccccc2C1=O` [Example 100, N-cyclopentyl-6-((3-methyl-1,4-dioxo-1,4-dihydronaphthalen-2-yl)methyl)nicotinamide]: the IC50 at 10 min at CYP3A4 [2] is ≥ 50 µM. For the same compound, the 50% effective concentration (EC50) in data set [3] (setting [6]) was 50 to 250 nM.

Take `CC1=C(Cc2ccc(C(N)=O)cn2)C(=O)c2ccccc2C1=O` [Example 101, 6-((3-methyl-1,4-dioxo-1,4-dihydronaphthalen-2-yl)methyl)nicotinamide]: at CYP3A4 [2], the half-maximal inhibitory concentration (IC50) worked out at 23 µM. Also, the EC50 in data set [3] (setting [6]) is < 50 nM.

For `CCN(C(=O)c1ccc(CC2=C(C)C(=O)c3ccccc3C2=O)nc1)C(C)C` [Example 102, N-ethyl-N-isopropyl-6-((3-methyl-1,4-dioxo-1,4-dihydronaphthalen-2-yl)methyl)nicotinamide], the IC50 on CYP3A4 [2] was determined as 8.8 µM. In addition, the half-maximal effective concentration (EC50) in data set [3] (setting [6]) is < 50 nM.

As for `CC1=C(Cc2ccc(C(=O)NC3(C)CCC3)cn2)C(=O)c2ccccc2C1=O` [Example 103, 6-((3-methyl-1,4-dioxo-1,4-dihydronaphthalen-2-yl)methyl)-N-(1-methylcyclobutyl)nicotinamide], the IC50 at CYP3A4 [2] turned out to be 41.5 µM. Besides, the EC50 in data set [3] (setting [6]) fell in the range of 250 to 1000 nM.

With `CC1=C(Cc2ccc(C(=O)N(C)C(C)C)cn2)C(=O)c2ccccc2C1=O` [Example 104, N-isopropyl-N-methyl-6-((3-methyl-1,4-dioxo-1,4-dihydronaphthalen-2-yl)methyl)nicotinamide], the half-inhibitory concentration (IC50) on CYP3A4 [2] is 20.7 µM. Besides, the EC50 in data set [3] (setting [6]) was < 50 nM.

Turning to `CC1=C(Cc2ccc(C(=O)NCC3CC3)cn2)C(=O)c2ccccc2C1=O` [Example 105, N-(cyclopropylmethyl)-6-((3-methyl-1,4-dioxo-1,4-dihydronaphthalen-2-yl)methyl)nicotinamide], the 50% inhibitory concentration (IC50) at 10 min at CYP3A4 [2] is ≥ 50 µM. The EC50 in data set [3] (setting [6]) fell in the range of 50 to 250 nM.

With `CCCC1=C(Cc2ccc(C(F)(F)F)cn2)C(=O)c2ccccc2C1=O` [Example 109, 2-propyl-3-((5-(trifluoromethyl)pyridin-2-yl)methyl)naphthalene-1,4-dione], the IC50 on CYP3A4 [2] worked out at 15.6 µM. The half-maximal effective concentration (EC50) in data set [3] (setting [6]) is < 50 nM.

Consider `CC1=C(Cc2ccc(C#N)cn2)C(=O)c2ccccc2C1=O` [Example 123, 6-((3-methyl-1,4-dioxo-1,4-dihydronaphthalen-2-yl)methyl)nicotinonitrile], for which, on CYP3A4 [2], the IC50 at 10 min is ≥ 50 µM. Also, in data set [3] (setting [6]), the concentration for a half-maximal effect (EC50) was < 50 nM.

Take `CC1=C(Cc2ccc(C(F)(F)F)cn2)C(=O)c2c(ccc(F)c2F)C1=O` [Example 128, 5,6-difluoro-2-methyl-3-((5-(trifluoromethyl)pyridin-2-yl)methyl)naphthalene-1,4-dione]: the EC50 in data set [5] (setting [8]) is < 50 nM. The compound also displayed an IC50 at CYP3A4 [1] (Table 3) of 1.3 µM.
